Article PMC4265309 (Chemical biology & drug design, 2014)

Assays:
[1] = Peptide circular dichroism; assay type: physicochemical; conditions: secondary structure by CD, 25 °C
[2] = pH sensitivity of lytic activity; assay type: biochemical; conditions: ratio calculated from the average IC50 values of a peptide at pH=7.4 and pH=5.5
[3] = Peptide self-assembly and aggregation in solution; assay type: physicochemical
CHO-K1 cells [4] = assay: Peptide induced cell lysis; assay type: cell-based; conditions: CHO-K1, normal cell culture conditions, no peptide (Figures 2 and 4)
CHO-K1 cells [5] = assay: Measurement of cell surface pH, CHO-K1; assay type: cell-based; conditions: from pH=8.4 to pH=6.90, medium pH=7.4

Row | Molecule | Structure pH=6.5 [1] | Structure pH=7.4 [1] | pH sensitivity [2] | further results
1 | WLGALFKALSHLLGHHPH [CL-22] | Coil | α-helix | 13.8 | –
2 | FLGALFRALSHLL [CL-7] | Coil | α-helix | 2.2 | Aggregation at physiological pH ([3]; 40 µM peptide, 1,8-ANS 20 µM, excitation 369 nm, SEM at pH=7.4): underwent self-assembly at physiological pH; Stability of peptide aggregates under acidic conditions ([3]; 1,8-ANS 20 µM, 40 µM peptide, particle analysis at 80 µM): unstable and dissolved under acidic conditions
3 | WLGALFHALSKLL [CL-9] | Coil | α-helix | 3.0 | –
4 | Nc1ncnc2c1nc(Sc1ccc(Cl)cc1)n2[C@@H]1O[C@@H]2COP(=O)(O)O[C@H]2[C@H]1O [Peptide 8-CPT-cAMP, 8-CPT-cAMP] | – | – | – | Effect on cell viability (CHO-K1 cells [4]): no effects on the viability; Time to reduction of cell surface pH (CHO-K1 cells [5]): ≤ 30 minutes
5 | CO/C1=C\C(C)=C\[C@@H](C)[C@@H](O)[C@@H](C)C/C(C)=C/C=C/[C@H](OC)[C@@H]([C@@H](C)[C@@H](O)[C@H](C)[C@@]2(O)C[C@@H](O)[C@H](C)[C@@H](C(C)C)O2)OC1=O [Bafilomycin A1] | – | – | – | Effect on cell viability (CHO-K1 cells [4]): very limited effects on cell viability
6 | FLGALFRALSRLL [CL-1] | Coil | Coil | 1.2 | –
7 | WLGALFKALSHLL [CL-10] | Coil | α-helix | 2.5 | –
8 | FLGALFKALSKLL [PTP-7] | – | – | – | Cytotoxicity to A549 relative to CCD-13Lu (A549 and CCD-13Lu cells): equally active to both cells
